Reference: patent publication US12233071B2, “Medicament for treating cough” (NIPPON CHEMIPHAR CO., LTD, priority 2018, dated 2025)
Counter-ions that a name gives are not always drawn. Like-named read-outs stand apart in the source and are kept apart here.

Key:
[1] = tested on: citric acid (0.5 M)-induced cough; experiment: Citric acid-induced cough reflux in pretreatment guinea pigs, oral administration; format: in vivo, Hartly strain guinea pigs; settings: for number of coughs, pre versus post administration: pretreatment guinea pigs
From the text: Cough reflux is induced by inhalation of (in the case of mice, 0.1 M or 0.25 M and in the case of guinea pigs, 0.25 M or 0.5 M) citric acid by mice or guinea pigs under non-anesthesia conditions. The citric acid is made aerosol by using an ultrasonic nebulizer (NE-U17: OMRON Corporation), and is inhaled while the air is supplied with an artificial respirator (SN-480-7: Shinano Seisakusho). The citric acid aerosol has an average particle size of from 1 to 8 μm, and the artificial respirator is used to supply the air at a one-time ventilation volume of 6 mL, a frequency of 30 times per min, and an inhalation period of 3 min.
The respiration and the cough reflux are measured in accordance with the body-plethysmograph method. The plethysmograph used includes: a plastic-made, cylindrical cylinder part in which the trunk of each mouse or guinea pig is housed; and a cap part that covers the head portion (any plastic-made cylinder is allowed as long as each experimental animal can be put in; in the case of the mouse, for instance, the part with a diameter of 4 cm and a length of 7 cm was used). An exhaust hole is created at an upper cylinder portion so as to be able to connect, via a silicon tube, to a respiratory flow meter (TP-602T: NIHON KOHDEN CORPORATION). To tightly seal the inside of the cylinder, a rubber or celluloid collar is attached to the neck of each animal, and the cap covering the whole head is used to fix them. The head-attached cap part has an exhaust port and an inhalation port created for inhalation of a cough-inducing substance. In addition, a screw-type lid is attached to a tail portion of the cylinder so as to move in or out each experimental animal. Each mouse is put in the cylinder, allowed to play for at least 30 min, adapted to an experimental environment, and then subjected to the experiment. The respiration is recorded in a PC (IdeaPad 300: Lenovo) for measurement by measuring, as a change in volume of the cylinder, the chest movement of each experimental animal in the cylinder by using a PowerLab (ML826 PowerLab 2/26: AD Instruments) via a respiratory flow meter. When a cough is induced, the chest of the experimental animal is moved vigorously, which causes an instantaneous large volume change in the cylinder. This change is recorded using the respiratory flow meter. This frequency is recorded to measure the number of coughs. The data is analyzed by LabChart version 8 (ADInstruments). In addition, immediately before inhalation of citric acid, the respiratory frequency per 15 sec is measured.
In this way, the effects were investigated.
At that time, Hartly strain guinea pigs were used as the guinea pigs, and 0.5 M citric acid was used as the citric acid.
In this way, the effects were investigated. Here, 0.5 M citric acid was used as the pretreated citric acid.

[2] = tested on: citric acid-induced cough; settings: cited from earlier work
[3] = target: T1, human P2X4 (Homo sapiens, UniProt Q99571); experiment: P2X4 receptor antagonistic action: ATP-induced intracellular calcium response (Fura-2AM) in P2X4 receptor-expressing 1321N1 cells; format: cell-based
T1 sequence (Q99571 1-388): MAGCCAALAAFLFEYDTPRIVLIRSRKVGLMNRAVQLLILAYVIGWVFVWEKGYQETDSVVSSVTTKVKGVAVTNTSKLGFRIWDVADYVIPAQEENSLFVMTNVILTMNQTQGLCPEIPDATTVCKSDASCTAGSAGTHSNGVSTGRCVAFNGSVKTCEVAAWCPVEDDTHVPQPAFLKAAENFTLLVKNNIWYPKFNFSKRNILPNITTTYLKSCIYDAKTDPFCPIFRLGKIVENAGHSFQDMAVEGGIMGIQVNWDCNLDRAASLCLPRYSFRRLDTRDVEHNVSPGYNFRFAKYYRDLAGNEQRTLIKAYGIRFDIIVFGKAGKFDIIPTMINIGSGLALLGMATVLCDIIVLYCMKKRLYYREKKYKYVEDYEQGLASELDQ
Method: An ATP receptor (human P2X4) was introduced in 1321N1 cells, which were then used as a system in which P2X4 receptor was expressed stably. The P2X4 receptor-expressing cells were seeded on a 96-well plate, were cultured for 24 h under conditions at 37° C. and 5% C02, and were then used for calcium measurement. Fura-2AM, which is a calcium fluorescence indicator, was dissolved in an extracellular solution for calcium imaging and applied to the seeded cells. Then, the cells were allowed to stand at room temperature for 45 min. In this way, the Fura-2AM was taken up in the cells. A micro plate reader EnVision (PerkinElmer) was used for the measurement. Light emitted from a xenon lamp was made to pass through a 340-nm or 380-nm filter, and F340 or F380, which is 510-nm fluorescence emitted when the cells were irradiated, were observed. Then, a change in the ratio value F340/F380 was an index for the intracellular calcium change. The measurement was carried out by adding ATP at the final concentration of 1 μM to each well and by recording, over time, the ATP-induced intracellular calcium response. The inhibitory activity of each test substance was measured by conducting 15-min pretreatment with each test substance before ATP application, and was calculated while compared to the case of the absence of the test substance.

[4] = tested on: citric acid (0.25 M)-induced cough; experiment: Citric acid-induced cough reflux in pretreatment mice, oral administration; format: in vivo, ICR strain mice; settings: oral 10 mg/kg, 0.25 M citric acid 1 h after administration
[5] = Table 131 (Example 1), human P2X4-expressing 1321N1 cells, ATP 1 μM, Fura-2AM calcium response, read-out: IC50

O=C1CC(=O)N(c2ccc(NC(=O)c3ccccc3C(F)(F)F)cc2)c2ccc3ccccc3c2N1 [compound C, 5-[4-[2-(trifluoromethyl)benzoyl]aminophenyl]-1H-naphtho[1,2-b][1,4]diazepin-2,4(3H,5H)-dione]
cough response increased due to airway inflammation ([1]; as stated in Example 15, oral 58.8 mg/kg): inhibited completely
number of coughs, pre versus post administration ([1]; oral 58.8 mg/kg 1 h before 0.5 M citric acid stimulation): significantly decreased

TNP-ATP
number of coughs induced by citric acid and increased depending on the concentration of ATP ([2]; Non Patent Literature 2): decreased
inhibition of the ATP-elicited increase of citric acid-induced cough ([2]; guinea pigs, inhalation pretreatment / aerosol, Non Patent Literature 1): completely inhibited

5-[4-[(2-(3-fluorophenyl)ethyl)-1H-imidazol-1-yl]phenyl]-1H-naphtho[1,2-b][1,4]diazepin-2,4(3H,5H)-dione hydrochloride [Compound H31]
IC50 ([3]; Table 135 (Example 14), same protocol as Example 1, read-out: Inhibitory action IC50): 51 nM

O=C1CN=C(c2cccc(-c3nnn[nH]3)c2)c2ccc3ccccc3c2N1 [Compound A21, 5-[3-(1H-tetrazol-5-yl)phenyl]-1,3-dihydro-2H-naphtho[1,2-e][1,4]diazepin-2-one sodium salt]
IC50 [3]: 910 nM

O=c1[nH]c2c3ccccc3ccc2n(-c2cccc(-c3nnn[nH]3)c2)c1=O [Compound C2, 4-[3-(1H-tetrazol-5-yl)phenyl]-1,4-dihydrobenzo[f]quinoxalin-2,3-dione sodium salt]
IC50 [3, 5]: 570 nM

Nc1ncnc2c1ncn2[C@@H]1O[C@H](COP(=O)(O)OP(=O)(O)OP(=O)(O)O)[C@@H](O)[C@H]1O [ATP, adenosine triphosphate]
effect of ATP on citric acid-induced cough ([2]; guinea pigs, Non Patent Literature 1): elicited a concentration-dependent and significant increase

COc1ccc2c3c1O[C@H]1[C@@H](O)CC[C@H]4[C@@H](C2)N(C)CC[C@@]341 [dihydrocodeine, reference compound]
cough inhibition rate, compound A versus the same dose of dihydrocodeine [4]: comparable

O=c1nc(-c2cccc(-c3nnn[nH]3)c2)c2ccc3ccccc3c2[nH]1 [Compound D2, 4-[3-(1H-tetrazol-5-yl)phenyl]-1H-benzo[h]quinazolin-2-one sodium salt]
IC50 [3, 5]: 330 nM

CN(C)c1ncccc1C(=O)Nc1ccc(C2=NCC(=O)Nc3c2ccc2ccccc32)cc1.Cl.Cl [compound D, 2-(dimethylamino)-N-[4-(2-oxo-2,3-dihydro-1H-naphtho[1,2-e][1,4]diazepin-5-yl)phenyl]nicotinamide dihydrochloride]
cough response increased due to airway inflammation ([1]; as stated in Example 15, oral 30 mg/kg): completely inhibit
number of coughs, pre versus post administration ([1]; oral 30 mg/kg 1 h before 0.5 M citric acid stimulation): significantly decreased

O=C1CC(=O)N(c2ccc(-n3nnnc3Cc3ccccc3O)nc2)c2ccc3ccccc3c2N1 [Compound H11, 5-[6-[5-(2-hydroxybenzyl)-1H-tetrazol-1-yl]pyridin-3-yl]-1H-naphtho[1,2-b][1,4]diazepin-2,4(3H,5H)-dione]
IC50 ([3]; Table 134 (Example 14), same protocol as Example 1, read-out: Inhibitory action IC50): 77 nM

COc1c(F)cccc1CCc1nccn1-c1ccc(N2C(=O)CC(=O)Nc3c2ccc2ccccc32)cc1 [Compound H83, 5-[4-[(2-(3-fluoro-2-methoxyphenyl)ethyl)-1H-imidazol-1-yl]phenyl]-1H-naphtho[1,2-b][1,4]diazepin-2,4(3H,5H)-dione hydrochloride]
IC50 ([3]; read-out: Inhibitory action IC50): 87 nM

O=C1CC(=O)N(c2ccc(F)c(-c3nnn[nH]3)c2)c2ccc3ccccc3c2N1 [Compound A23, 5-[4-fluoro-3-(1H-tetrazol-5-yl)phenyl]-1H-naphtho[1,2-b][1,4]diazepin-2,4(3H,5H)-dione sodium salt]
IC50 [3, 5]: 490 nM
